Experimental data published in US20240317774A1, “Pharmaceutical Compound” (GLAXOSMITHKLINE INTELLECTUAL PROPERTY DEVELOPMENT LIMITED, priority 2021, published 2024).
Where two headings read alike, the source gives them in different places.

What was measured:
[1] = biological target: T1, cytochrome bc1 of mitochondria isolated from human parasites (P. falciparum 3D7A) (Plasmodium falciparum, UniProt Q02768); assay: Enzymatic bc1 inhibition, cytochrome c reductase activity, P. falciparum mitochondria; type: biochemical
T1 construct: endogenous in cells; host or cells: P. falciparum 3D7A parasites from parasitized erythrocytes (isolated mitochondria)
T1 sequence (Q02768 whole entry): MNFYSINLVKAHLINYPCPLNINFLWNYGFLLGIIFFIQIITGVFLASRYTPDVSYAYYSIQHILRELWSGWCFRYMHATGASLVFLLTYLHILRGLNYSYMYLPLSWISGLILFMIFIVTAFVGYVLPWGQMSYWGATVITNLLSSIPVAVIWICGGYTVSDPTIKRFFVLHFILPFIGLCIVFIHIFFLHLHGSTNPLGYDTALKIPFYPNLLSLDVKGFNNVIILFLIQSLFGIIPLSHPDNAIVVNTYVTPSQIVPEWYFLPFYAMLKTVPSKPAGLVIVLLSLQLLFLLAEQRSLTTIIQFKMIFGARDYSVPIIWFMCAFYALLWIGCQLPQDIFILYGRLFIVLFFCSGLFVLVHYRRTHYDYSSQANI
Description: (§1) For cytochrome bc1 experiments, mitochondria were isolated as follows: parasitized erythrocytes were harvested by centrifugation and lysed with 0.05% (w/v) saponin in RPMI. Then parasites were washed three times with H-medium (0.07 M sucrose, 0.21 M mannitol, 1 mM EGTA, 5 mM MgCl2, 5 mM KH2PO4, and 4 mM HEPES, pH 7.4) and resuspended in the same medium in the presence of 1 mM PMSF and protease inhibitor cocktail (Roche Complete). Parasites were disrupted by N2 cavitation (4639 Cell disruption Bomb, Parr Instrument, Moline, IL, USA) at 1600 psi for 25 min at 4° C. Unbroken cells and cell debris were removed by centrifugation at 1,200×g for 10 min at 4° C. The mitochondrial fraction was pelleted at 10,000×g for 20 min at 4° C. The mitochondrial pellet was gently resuspended in 0.8 M sucrose, 1 mM EDTA, 10 mM Tris-HCl PH 7.4, and 0.1% BSA prior to separation on a 1-2 M sucrose gradient. The sample was centrifuged on a gradient at 80,000×g for 2 hr at 4° C. The mitochondria were then recovered and washed with 1 mM EDTA, 10 mM Tris-HCL pH 7.4 to remove sucrose, and resuspended in H-medium with protease inhibitor cocktail and 1 mM PMSF. Samples were stored at −80° C. until use. In the case of human mitochondria, HEK293 human cell line was used as starting material. Cells were pelleted at 400×g 10 min and disrupted by N2 cavitation. Mitochondria then were isolated using the method described above. Cytochrome c reductase activity was assayed by a modification of the method of Fry and Pudney, Biochem. Pharmacol., 43 (1992), pp. 1545-1553. Mitochondria (40 μg/ml) were diluted in reaction buffer (250 mM sucrose, 50 mM KH2PO4, 0.2 mM EDTA, 1 mM NaN3, and 2.5 mM KCN) containing 50 μM cytochrome c. Reactions were started by addition of 25 μM decylubiquinol and monitored by reduction of cytochrome c at 550 nm. To assure the linearity of the enzymatic reaction only data from the first 60 s were collected. Decylubiquinol substrate was prepared by reducing decylubiquinone (Sigma-Aldrich, St. Louis, MO, USA) in ethanol with sodium borohydride. Decylubiquinol was aliquoted and stored in acidified ethanol at −80° C. Inhibition of bc1 activity on mitochondria isolated from human parasites (P. falciparum 3D7A), rodent parasites (P. berghei ANKA) and human cells (HEK293).

[2] = test system: P. falciparum infected erythrocytes; assay: Blood stages activity, [3H]hypoxanthine incorporation method; type: cell-based; details: Plasmodium falciparum, Erythrocyte; whole cell activity; read-out: WC IC50
Description: The sensitivity of P. falciparum infected erythrocytes to the compound was determined using the [3H]hypoxanthine incorporation method with an inoculum of 0.5% parasitemia (ring stage) and 2% hematocrit. The parasites were grown in RPMI 1640, 25 mM HEPES and supplemented with 5% Albumax. Plates are incubated at 37° C., 5% CO2, 5% O2, 90% N2. After 24 h of incubation, [3H]hypoxanthine is added and plates are incubated for another 24 h. After that period, plates are harvested on a glass fiber filter using a TOMTEC Cell harvester 96. Filters are dried and melt on scintillator sheets and the bound radioactivity is quantified by use of a Wallac Microbeta Trilux (Model 1450 LS-Perkin Elmer). IC50s are determined using Grafit 7 program (Grafit program; Erithacus Software, Horley, Surrey, United Kingdom).

[3] = biological target: T2, cytochrome bc1 of mitochondria isolated from human cells (HEK293) (Homo sapiens, UniProt P00156); assay: Enzymatic bc1 inhibition, cytochrome c reductase activity, human mitochondria; type: biochemical; details: for IC50: activity in the human target, read-out: Hbc1 IC50; for Tox window selectivity index: human bc1 vs P. falciparum bc1
T2 construct: endogenous in cells; host or cells: HEK293 (isolated mitochondria)
Description: as §1

[4] = test system: P. falciparum FCR3; assay: Panel of P. falciparum strains: FCR3; type: cell-based; details: strain FCR3
[5] = test system: P. falciparum Tm90C2A; assay: Panel of P. falciparum strains: Tm90C2A; type: cell-based; details: strain Tm90C2A
[6] = test system: P. falciparum Dd2; assay: Panel of P. falciparum strains: Dd2; type: cell-based; details: strain Dd2
[7] = test system: P. falciparum Tm90C2B; type: cell-based; details: strain Tm90C2B
[8] = test system: P. falciparum 3D7A; assay: Panel of P. falciparum strains: 3D7A; type: cell-based; details: Plasmodium falciparum, read-out: IC50 (mean μM ± SD) 3D7A
[9] = activity in the P. falciparum target, read-out: p.fbc1 IC50

| SMILES | IC50 [1, 9] | IC50 [2] | IC50 [3] | Tox window selectivity index [3] | Pf IC50 Ratio vs Pf IC50 3D7, FCR3 [4] | Pf IC50 Ratio vs Pf IC50 3D7, Tm90C2A [5] | Pf IC50 Ratio vs Pf IC50 3D7, Dd2 [6] | Pf IC50 Ratio vs Pf IC50 3D7, Tm90C2B [7] | IC50 [8] | IC50 [1] | IC50 ([8]; strain 3D7A) |
| --- | --- | --- | --- | --- | --- | --- | --- | --- | --- | --- | --- |
| Cc1[nH]c2sc3cc(-c4cc(C(F)(F)F)ccc4F)ccc3c2c(=O)c1Cl [Example 3, 3-chloro-7-(2-fluoro-5-(trifluoromethyl)phenyl)-2-methylbenzo[4,5]thieno[2,3-b]pyridin-4(1H)-one] | 1.8 nM | 31.6 nM | 1520 nM | 500 |  |  |  |  |  |  |  |
| Cc1[nH]c2sc3cc(-c4ccccc4OC(F)(F)F)ccc3c2c(=O)c1Cl [Example 4, 3-chloro-2-methyl-7-(2-(trifluoromethoxy)phenyl)benzo[4,5]thieno[2,3-b]pyridin-4(1H)-one] | 0.96 nM | 0.732 nM | 1560 nM | 1625 |  |  |  |  |  |  |  |
| C[C@H]1[C@H](OC(=O)CCC(=O)O)O[C@@H]2O[C@@]3(C)CC[C@H]4[C@H](C)CC[C@@H]1[C@@]24OO3 [Artesunate] |  |  |  |  | 1 | 1 | 1 | 1 | 0.014 ± 0.0003 µM |  |  |
| Cc1[nH]c2sc3cc(-c4ccc(C(F)(F)F)cc4F)ccc3c2c(=O)c1Cl [Example 1, 3-chloro-7-(2-fluoro-4-(trifluoromethyl)phenyl)-2-methylbenzo[4,5] thieno[2,3-b]pyridin-4(1H)-one] |  | 1.46 nM | 3300 nM | 300-600 | 1 | 1 | 1 | 7 |  | 4.6 nM | 0.012 ± 0.002 µM |
| OC(c1cc(C(F)(F)F)nc2c(C(F)(F)F)cccc12)C1CCCCN1 (centres unmarked) [Mefloquine] |  |  |  |  | 1 | 0.3 | 1 | 1 |  |  | 0.037 ± 0.001 µM |
| O=C1C(O)=C([C@H]2CC[C@H](c3ccc(Cl)cc3)CC2)C(=O)c2ccccc21 [Atovaquone] |  |  |  |  | >100 | 1 | 2 | >250 |  |  | 0.001 ± 0.001 µM |
| C[C@H]1[C@@H](O)O[C@@H]2O[C@@]3(C)CC[C@H]4[C@H](C)CC[C@@H]1[C@@]24OO3 [Dihydroartemisinine] |  |  |  |  | 1 | 1 | 1 | 1 |  |  | 0.004 ± 0.0001 µM |
| CCN(CC)CCCC(C)Nc1ccnc2cc(Cl)ccc12 (centres unmarked) [Chloroquine] |  |  |  |  | >7 | >7 | >7 | >14 | 0.029 ± 0.006 µM |  |  |
| Cc1[nH]c2sc3cc(-c4ccc(C(F)(F)F)cc4C(F)(F)F)ccc3c2c(=O)c1Cl [Example 5, 7-(2,4-bis(trifluoromethyl)phenyl)-3-chloro-2-methylbenzo[4,5]thieno[2,3-b]pyridin-4(1H)-one] |  | 0.433 nM | 2420 nM | 2200 |  |  |  |  |  | 1.1 nM |  |
| Cc1[nH]c2sc3cc(-c4ccc(CO)cc4)ccc3c2c(=O)c1Cl [Example 6, 3-chloro-7-(4-(hydroxymethyl)phenyl)-2-methylbenzo[4,5]thieno[2,3-b]pyridin-4(1H)-one] |  | 0.946 nM | 5420 nM |  |  |  |  |  |  |  |  |
| Cc1[nH]c2sc3cc(-c4ccc(CN(C)C5CCN(Cc6ccc(OC(F)(F)F)cc6)CC5)cc4)ccc3c2c(=O)c1Cl [Example 7, 3-chloro-2-methyl-7-(4-((methyl(1-(4-(trifluoromethoxy)benzyl)piperidin-4-yl)amino)methyl)phenyl)benzo[4,5]thieno[2,3-b]pyridin-4(1H)-one 2,2,2-trifluoroacetate] |  | 121 nM | > 10000 nM |  |  |  |  |  |  |  |  |
| CCCCN(CCCC)CC(O)c1cc(Cl)cc2c1-c1ccc(Cl)cc1/C2=C/c1ccc(Cl)cc1 (centres unmarked) [Lumefantrine] |  |  |  |  |  | 0.1 | 1 | 1 | 0.011 ± 0.004 µM |  |  |
| CCc1nc(N)nc(N)c1-c1ccc(Cl)cc1 [Pyrimethamine] |  |  |  |  | 3 | >312 | >312 | >88 |  |  | 0.032 ± 0.001 µM |
